Patent US8883963B2 (Cadila Healthcare Limited, priority 2007, dated 2014)

How the values were obtained:
DPP IV = DPP IV (Homo sapiens, UniProt P27487); assay: Stability against DPP IV enzyme; type: in vitro ADME; settings: 37° C.; for % degradation of peptidomimetics in 24 h when incubated with DPP-IV enzyme: 2 μM peptidomimetic; for half-life at 2 μM: DPP IV enzyme, pH 7.8, 2 μM peptidomimetic, read-out: half-life (t1/2) when incubated with DPP-IV enzyme
Protocol: (§1) Reactions were terminated by the addition of TFA/H2O (15 mL, 10% (v/v)). […] The column was equilibrated with TFA/H20, at a flow rate of 1 mL/min.

[1] = Stability in simulated gastric fluid; type: in vitro ADME; settings: 2 μM peptidomimetic, simulated gastric fluid pH 1.5, 37° C.; for half-life at 2 μM: read-out: half-life (t1/2) when incubated with simulated gastric fluid
Protocol: as §1

[2] = Stability in simulated intestinal fluid; type: in vitro ADME; settings: 2 μM peptidomimetic, simulated intestinal fluid pH 7.5, 37° C.; for half-life at 2 μM: read-out: half-life (t1/2) when incubated with simulated intestinal fluid
Protocol: as §1

[3] = Stability in liver microsomes; type: in vitro ADME; settings: 2 μM peptidomimetic, human liver microsomes, 37° C.; for half-life at 2 μM: pH 7.8, read-out: half-life (t1/2) when incubated with liver microsomes
Protocol: as §1

[4] = system: RIN5F (Rat Insulinoma) cells; assay: In vitro glucose-dependent insulin secretion (RIN5F cell assay screening protocol); type: cell-based; settings: 16.7 mM glucose load
[5] = Stability in human plasma; type: in vitro ADME; settings: 2 μM peptidomimetic, pooled human plasma, 37° C.; for half-life at 2 μM: pH 7.8, read-out: half-life (t1/2) when incubated with human plasma
Protocol: as §1

Human GLP-1 receptor = biological target: T1, Human GLP-1 receptor (Homo sapiens, UniProt P43220); assay: In vitro Human GLP-1 R agonist activity (cyclic AMP determination) in CHO/human GLP1R cells; type: cell-based
T1 construct: The full-length cDNA was cloned in pcDNA3.1(+); expressed in transfected cells
T1 sequence (P43220 24-463): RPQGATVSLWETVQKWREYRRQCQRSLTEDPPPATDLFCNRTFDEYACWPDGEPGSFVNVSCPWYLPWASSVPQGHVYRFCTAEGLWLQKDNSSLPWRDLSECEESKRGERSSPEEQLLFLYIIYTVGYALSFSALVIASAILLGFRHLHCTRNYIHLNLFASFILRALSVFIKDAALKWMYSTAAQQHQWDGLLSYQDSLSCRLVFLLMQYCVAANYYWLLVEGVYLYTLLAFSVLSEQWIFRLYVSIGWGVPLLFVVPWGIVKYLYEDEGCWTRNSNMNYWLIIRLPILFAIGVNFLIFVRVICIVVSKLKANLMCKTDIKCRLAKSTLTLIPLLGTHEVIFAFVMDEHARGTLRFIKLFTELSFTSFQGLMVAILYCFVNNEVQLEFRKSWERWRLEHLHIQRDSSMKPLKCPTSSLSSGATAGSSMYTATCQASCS

Sequence of DPP IV (P27487 whole entry, species assumed): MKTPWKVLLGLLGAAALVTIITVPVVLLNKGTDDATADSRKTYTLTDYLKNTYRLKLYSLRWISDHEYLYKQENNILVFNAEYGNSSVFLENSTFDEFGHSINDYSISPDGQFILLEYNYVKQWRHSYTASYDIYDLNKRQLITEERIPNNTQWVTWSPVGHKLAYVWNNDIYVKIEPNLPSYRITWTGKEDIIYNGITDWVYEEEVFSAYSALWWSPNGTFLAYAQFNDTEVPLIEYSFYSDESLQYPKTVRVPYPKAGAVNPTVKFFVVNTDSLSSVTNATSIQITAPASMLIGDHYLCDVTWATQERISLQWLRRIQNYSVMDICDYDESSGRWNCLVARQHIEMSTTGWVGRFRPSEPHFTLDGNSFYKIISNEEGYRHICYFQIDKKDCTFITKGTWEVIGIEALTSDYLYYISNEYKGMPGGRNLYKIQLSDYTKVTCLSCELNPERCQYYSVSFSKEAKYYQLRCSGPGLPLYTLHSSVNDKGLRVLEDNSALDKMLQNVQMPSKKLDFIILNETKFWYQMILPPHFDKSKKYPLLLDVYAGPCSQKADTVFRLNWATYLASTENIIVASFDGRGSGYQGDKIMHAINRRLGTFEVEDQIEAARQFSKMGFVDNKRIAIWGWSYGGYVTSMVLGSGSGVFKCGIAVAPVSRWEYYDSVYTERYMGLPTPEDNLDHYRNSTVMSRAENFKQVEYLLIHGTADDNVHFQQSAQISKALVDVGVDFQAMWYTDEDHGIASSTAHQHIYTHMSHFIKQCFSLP

Row | Structure (SMILES) | % degradation of peptidomimetics in 24 h when incubated with DPP-IV enzyme (DPP IV) [%] | % degradation of peptidomimetics in 24 h when incubated with simulated gastric fluid [1] [%] | half-life at 2 μM [1] [min] | % degradation of peptidomimetics in 24 h when incubated with simulated intestinal fluid [2] | half-life at 2 μM [2] [min] | % degradation of peptidomimetics in 24 h when incubated with liver microsomes [3] [%] | half-life at 2 μM [3] [min] | Insulin secretion ([4]; 0.1 nM test compd.) [pg/µg/h] | Insulin secretion ([4]; 1 nM test compd.) [pg/µg/h] | Insulin secretion ([4]; 10 nM test compd.) [pg/µg/h] | half-life (t1/2) when incubated with human plasma [5] | % degradation of peptidomimetics in 24 h when incubated with human plasma [5] [%] | Human GLP-1 R activity (cAMP release), % activity with respect to control (Human GLP-1 receptor; 1 nM test compound) [%] | Human GLP-1 R activity (cAMP release), % activity with respect to control (Human GLP-1 receptor; 10 nM test compound) [%] | Human GLP-1 R activity (cAMP release), % activity with respect to control (Human GLP-1 receptor; 100 nM test compound) [%] | Human GLP-1 R activity (cAMP release), % activity with respect to control (Human GLP-1 receptor; 1 μM test compound) [%] | Human GLP-1 R activity (cAMP release), % activity with respect to control (Human GLP-1 receptor; 10 μM test compound) [%] | half-life at 2 μM (DPP IV) [min] | half-life at 2 μM [5] [min] | other results
1 | CCc1cc(OC)ccc1-c1ccc(CC(NC(=O)[C@H](CC(=O)O)NC(=O)[C@H](CO)NC(=O)[C@@H](NC(=O)C(C)(Cc2ccccc2F)NC(=O)[C@@H](NC(=O)CNC(=O)[C@H](CC(C(F)(F)F)C(F)(F)F)NC(=O)C(C)(C)NC(=O)[C@H](Cc2c[nH]cn2)NC(C)=O)[C@@H](C)O)[C@@H](C)O)C(=O)NC(CCCc2ccccc2)C(N)=O)cc1 (single isomer, unassigned) [compound 210] | 75 | 100 | 30 | 100% | 30 | 100 | 30 | 11.9 ± 0.17 | 14.2 ± 0.13 | 27.6 ± 0.16 | (9) h | 77 | 46 ± 0.022 | 85 ± 0.46 | 90 ± 0.41 | 99 ± 0.66 | 99 ± 0.03 |  |  | 
2 | CCc1cc(OC)ccc1-c1ccc(CC(NC(=O)[C@H](CC(=O)O)NC(=O)[C@H](CO)NC(=O)[C@@H](NC(=O)[C@H](Cc2ccccc2)NC(=O)[C@@H](NC(=O)CNC(=O)C(CCC#N)NC(=O)C(C)(C)NC(=O)[C@@H](N)Cc2c[nH]cn2)[C@@H](C)O)[C@@H](C)O)C(=O)NC(CCCc2ccccc2Cl)C(N)=O)cc1 (single isomer, unassigned) [compound 82] | 00 | 55 | 240 | 00% | > 1440 | 84 | 120 | 16.9 ± 0.22 | 22.8 ± 0.31 | 36.7 ± 0.34 |  | 00 | 78 ± 0.12 | 99 ± 0.15 | 99 ± 0.18 | 99 ± 0.03 | 99 ± 0.09 | > 1440 | > 1440 | 
3 | CCc1cc(OC)ccc1-c1ccc(CC(NC(=O)[C@H](CC(=O)O)NC(=O)[C@H](CO)NC(=O)[C@@H](NC(=O)C(C)(Cc2ccccc2)NC(=O)[C@@H](NC(=O)CNC(=O)[C@H](CC(C(F)(F)F)C(F)(F)F)NC(=O)C(C)(C)NC(=O)[C@@H](N)Cc2c[nH]cn2)[C@@H](C)O)[C@@H](C)O)C(=O)NC(CCCc2ccccc2)C(N)=O)cc1 (single isomer, unassigned) [compound 230] | 86 | 100 | 30 | 100 ) % | 30 | 100 | 30 | 12.1 ± 0.51 | 14.1 ± 0.19 | 28.1 ± 0.29 | (9) h | 70 | 99 ± 0.12 | 99 ± 0.08 | 99 ± 0.11 | 99 ± 0.12 | 99 ± 0.16 |  |  | 
4 | CCc1cc(OC)ccc1-c1ccc(CC(NC(=O)[C@H](CC(=O)O)NC(=O)[C@H](CO)NC(=O)[C@@H](NC(=O)[C@H](Cc2ccccc2)NC(=O)[C@@H](NC(=O)CNC(=O)[C@H](CCC(N)=O)NC(=O)[C@H](CO)NC(=O)[C@@H](N)Cc2c[nH]cn2)[C@@H](C)O)[C@@H](C)O)C(=O)NC(CCCc2ccccc2C(F)(F)F)C(N)=O)cc1 (single isomer, unassigned) [compound 47] | 76 | 12 |  | 55% |  | 79 | 60 | 13.1 ± 0.11 | 14.9 ± 0.17 | 28.8 ± 0.44 |  | 78 | 55 ± 0.16 | 89 ± 0.05 | 93 ± 0.09 | 99 ± 0.02 | 99 ± 0.04 | 540 | 480 | half-life (t1/2) when incubated with simulated gastric fluid [1]: (8) h; half-life (t1/2) when incubated with simulated intestinal fluid [2]: (6) h
5 | CCc1cc(OC)ccc1-c1ccc(CC(NC(=O)[C@H](CC(=O)O)NC(=O)[C@H](CO)NC(=O)[C@@H](NC(=O)[C@H](Cc2ccccc2)NC(=O)[C@@H](NC(=O)CNC(=O)C(CCC#N)NC(=O)C(C)(C)NC(=O)[C@@H](N)Cc2c[nH]cn2)[C@@H](C)O)[C@@H](C)O)C(=O)NC(CCCc2ccc(Cl)cc2C)C(N)=O)cc1 (single isomer, unassigned) [compound 32] | 75 | 100 | 30 | 100% | 30 | 100 | 30 | 12.1 ± 0.52 | 14.1 ± 0.16 | 28.0 ± 0.36 | (9) h | 77 | 39 ± 0.11 | 80 ± 0.09 | 88 ± 0.06 | 96 ± 0.14 | 99 ± 0.19 |  |  | 
6 | CCc1cc(OC)ccc1-c1ccc(CC(NC(=O)[C@H](CC(=O)O)NC(=O)[C@H](CO)NC(=O)[C@@H](NC(=O)[C@H](Cc2ccccc2)NC(=O)[C@@H](NC(=O)CNC(=O)C(CCC#N)NC(=O)C(C)(C)NC(=O)[C@@H](N)Cc2c[nH]cn2)[C@@H](C)O)[C@@H](C)O)C(=O)NC(CCCc2ccc(C(F)(F)F)cc2F)C(N)=O)cc1 (single isomer, unassigned) [compound 81] | 00 | 50 | 240 | 00% | > 1440 | 86 | 120 | 17.1 ± 0.15 | 23.1 ± 0.12 | 37.0 ± 0.19 |  | 00 | 69 ± 0.09 | 98 ± 0.07 | 99 ± 0.04 | 99 ± 0.01 | 99 ± 0.08 | > 1440 | > 1440 | 
